“And” between values parts separate entries of the source, which are not always exact repeats. Equal entries are not always repeated.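 48-hour exposure; five concentrations; linearly interpolated endpoints. The concentration for 50% growth inhibition is given as GI50. Definition used: TGI = concentration required for complete inhibition of growth.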
Tests used:
Assay in all cases: growth of human tumour cells (NCI), 48 h
[1] = tested on: OVCAR-4 ovarian
[2] = tested on: MOLT-4 leukemia
[3] = tested on: SR leukemia
[4] = tested on: UACC-62 melanoma
[5] = tested on: HCT-116 colon
[6] = tested on: DU-145 prostate
[7] = tested on: MDA-MB-231 breast
[8] = tested on: BT-549 breast
[9] = tested on: SNB-19 CNS
[10] = tested on: NCI/ADR-RES ovarian

Compound | TGI [1] | TGI [2] | TGI [3] [µM] | TGI [4] | TGI [5] | TGI [9] | also measured
NC1=NN(c2ccccc2)C(=O)C1C(=O)C(=O)Nc1ccc(Cl)cc1 (stereo unspecified) | > 100 µM | > 100 µM | > 100 | > 100 µM | > 100 µM | – | –
CC[C@@]1(O)C(=O)OCc2c1cc1n(c2=O)Cc2cc3cc(Cl)ccc3nc2-1 | – | – | – | – | – | 0.866 µM and 3.82 µM | GI50 [6]: 0.00491 µM; GI50 [7]: 0.094 µM; TGI [7]: 4.69 µM; GI50 [1]: 0.125 µM and 0.249 µM; GI50 [8]: 0.0562 µM; TGI [8]: 2.44 µM; GI50 [9]: 0.00345 µM; GI50 [2]: 0.00119 µM; GI50 [3]: 0.00232 µM and 0.0143 µM; GI50 [4]: 0.00183 µM
C#CCN(N=O)C(=O)NC(CCCCNC(=O)OCc1ccccc1)C(=O)OCc1ccccc1 (stereo unspecified) | 72.8 µM | 41.5 µM | – | > 100 µM | > 100 µM | > 100 µM | –
O=S(=O)(C1=CC(S(=O)(=O)c2ccccc2)COC1)c1ccccc1 (stereo unspecified) | > 100 µM | > 100 µM | > 100 | > 100 µM | > 100 µM | > 100 µM | –
N#CCCN(CCC#N)c1ccc(/C=C(/NC(=O)c2cc([N+](=O)[O-])ccc2Cl)C(=O)N=[N+]=[N-])cc1 | > 100 µM | > 100 µM | > 100 | > 100 µM | > 100 µM | > 100 µM | –
O/N=C1/CCC/C1=C\c1ccccc1 | > 100 µM | > 100 µM | > 100 | > 100 µM | > 100 µM | > 100 µM | –
CC(=O)OC1C[C@H]2C(OC(=O)c3ccccc3)C3C4(OC(C)=O)COC4C[C@H](OC(C)=O)[C@@]3(C)C(OC(C)=O)[C@H](OC(C)=O)C(=C1C)C2(C)C (stereo partly specified) | > 100 µM | > 100 µM | – | > 100 µM | > 100 µM | > 100 µM | –
Nc1cn(C2OC(CC(c3ccccc3)(c3ccccc3)c3ccccc3)C(O)C2O)c(=O)[nH]c1=O (stereo unspecified) | – | 63.4 µM | 39.9 | 28.5 µM | 32 µM | > 100 µM | –
O=C(CCc1nc(=S)[nH][nH]1)Nc1cc(Cl)ccc1Cl | > 100 µM | > 100 µM | > 100 | > 100 µM | > 100 µM | > 100 µM | –
NC(CCSCC(F)(F)F)C(=O)O (stereo unspecified) | > 100 µM | > 100 µM | > 100 | > 100 µM | > 100 µM | > 100 µM | –
C[C@H]1CCC/C=C/C2CC(OC(=O)CN(C)C)CC2C(OC(=O)CN(C)C)/C=C/C(=O)O1 (stereo partly specified) | 34.2 µM | 5.44 µM | 10.1 | > 65.4 µM | 16.7 µM | > 100 µM | GI50 [6]: 0.615 µM; TGI [6]: > 100 µM; GI50 [7]: 0.148 µM; TGI [7]: 0.806 µM; GI50 [1]: 0.349 µM; GI50 [8]: 0.459 µM; TGI [8]: 74.9 µM; GI50 [9]: 2.76 µM; GI50 [2]: 0.357 µM; GI50 [3]: 0.38 µM; GI50 [4]: 0.443 µM; GI50 [5]: 0.762 µM
CC(=O)NNc1nc(C)c(C(=O)NNC(=O)C(=O)Nc2ccc(Cl)c([N+](=O)[O-])c2)s1 | > 100 µM | 54.6 µM | > 100 | > 100 µM | > 100 µM | > 100 µM | –
O=C1Cc2c(-c3ccccc3)cc(-c3ccccc3)nc2-c2ccccc2N1 | – | – | – | 25.7 µM | 5.37 µM | 8.76 µM | TGI [6]: 20.3 µM; TGI [7]: 17.2 µM; TGI [8]: 22.5 µM; TGI [10]: 18.6 µM
O=C(CCC(=O)Nc1ccccc1C(F)(F)F)N/N=C1\C(=N\NC(=O)CCC(=O)Nc2ccccc2C(F)(F)F)C(c2ccc3c(c2)OCO3)Oc2ccccc21 (stereo unspecified) | > 85.4 µM | > 100 µM | > 100 | > 100 µM | > 100 µM | > 100 µM | –
CCc1cccc(C(C)C)c1NC(=O)CC1Sc2ccccc2NC1=O (stereo unspecified) | > 100 µM | 92.1 µM | 94.4 | – | > 100 µM | > 100 µM | –
Cc1noc2cccc(O)c12 | > 100 µM | > 100 µM | – | > 100 µM | > 100 µM | > 100 µM | –
COc1ccc(C(c2ccccc2C(=O)O)c2ccc(OC)c3ccccc23)c2ccccc12 | 25.6 µM | 66 µM | – | 16.4 µM | – | 25.4 µM | –
O=C1c2c(O)cccc2C(C(=O)CCCCCC(=O)C2c3cccc(O)c3C(=O)c3c(O)cccc32)c2cccc(O)c21 | 4.61 µM and 11 µM | 25 µM and 27.6 µM | 4.33 | 5.26 µM and 9.46 µM | 25 µM and 14.9 µM | 3.9 µM and 6.97 µM | GI50 [1]: 5.17 µM; GI50 [9]: 2.05 µM; GI50 [2]: 10.8 µM; GI50 [4]: 2.22 µM; GI50 [5]: 7.61 µM
NC(Cc1ccccc1)C(=O)OCN1C(=O)C2C3C=CC(C2C1=O)C1C2C(=O)N(COC(=O)C(N)Cc4ccccc4)C(=O)C2C31 (stereo unspecified) | 34 µM and 44.5 µM | 52 µM and 42.9 µM | 50.3 | 41.4 µM and 37.7 µM | 33.9 µM and 46.2 µM | > 100 µM | GI50 [2]: 24.3 µM and 12 µM

Compound | TGI [1] | TGI [2] | TGI [3] [µM] | TGI [4] | TGI [5] | TGI [9] | also measured
O=C(NCCCCCCCCCCCCNC(=O)c1cnc2ccccc2n1)c1cnc2ccccc2n1 | 29.8 µM | > 100 µM | – | > 100 µM | > 100 µM | 47.7 µM | –
CC(Oc1cc2oc(=O)cc(-c3ccccc3)c2cc1Cl)C(=O)O (stereo unspecified) | > 100 µM | > 100 µM | > 100 | > 100 µM | > 100 µM | > 100 µM | –
CCn1cnc(C[C@H](NC(=O)[C@H](CCCCNC(=O)Nc2cc(C(F)(F)F)cc(C(F)(F)F)c2)NC(=O)Nc2cc(C(F)(F)F)cc(C(F)(F)F)c2)C(=O)OC)c1 | > 10 µM | – | – | > 10 µM | > 10 µM | > 10 µM | GI50 [6]: 5.49 µM; TGI [6]: > 10 µM; GI50 [7]: 2.58 µM; TGI [7]: 6.37 µM; GI50 [1]: 3.51 µM; GI50 [8]: > 10 µM; TGI [8]: > 10 µM; GI50 [9]: 5.1 µM; GI50 [10]: > 10 µM; TGI [10]: > 10 µM; GI50 [4]: > 10 µM; GI50 [5]: 3.87 µM
C[C@@H](C1CC[C@H]2[C@@H]3[C@@H]4O[C@@H]4[C@@]4(O)CC=CC(=O)[C@]4(C)[C@H]3C[C@H](O)[C@]12C)[C@H]1C[C@]2(C)O[C@]2(C)C(=O)O1 (stereo partly specified) | > 100 µM | > 100 µM | – | > 100 µM | > 100 µM | > 100 µM | TGI [6]: > 100 µM; TGI [7]: > 100 µM; TGI [10]: > 100 µM
Cc1cc2c(cc1Cl)SC(N(c1ccccc1Cl)S(=O)(=O)c1ccc(Br)s1)=NS2(=O)=O | 76.8 µM | 42.5 µM | 83.4 | 68.4 µM | 34.3 µM | 68.5 µM | GI50 [6]: 14.5 µM; TGI [6]: 33 µM; GI50 [7]: 18.5 µM; TGI [7]: 61.8 µM; GI50 [1]: 18.1 µM; GI50 [9]: 19.9 µM; GI50 [2]: 15.3 µM; GI50 [10]: 17.2 µM; TGI [10]: 41.3 µM; GI50 [3]: 23.8 µM; GI50 [4]: 20.3 µM; GI50 [5]: 16.5 µM
c1ccc2c(c1)[nH]c1cnc3c4ncccc4[nH]c3c12 | > 100 µM | 97.6 µM | – | > 100 µM | > 100 µM | > 100 µM | –
O=C1OC(CC(=O)c2ccc(F)cc2)C(Cl)=C1Cl (stereo unspecified) | 43.5 µM | > 100 µM | 79 | 32.2 µM | 46.2 µM | 47 µM | –
NCCOc1ccc(/C(=C(/Cl)c2ccccc2)c2ccccc2)cc1 | 28.7 µM | 14.7 µM | 12.1 | 25.3 µM | 20.2 µM | 28.9 µM | –
COC(=O)C(=O)C(CC(=O)Nc1cc(Cl)ccc1Cl)C(=O)OC (stereo unspecified) | > 100 µM | > 100 µM | > 100 | > 100 µM | > 100 µM | > 100 µM | –
CCOC(=O)c1oc2c(OC)ccc3c2c1CCC3 | > 100 µM | > 100 µM | > 100 | > 100 µM | – | > 100 µM | –
O=C(Nc1cccc(C(F)(F)F)c1)C(=O)C(C(=O)c1ccc(Cl)c(Cl)c1)C1OC(=O)c2ccccc21 (stereo unspecified) | > 100 µM | > 100 µM | > 100 | 88.3 µM | 34.7 µM | > 100 µM | –
C/C(=N\Nc1ccccc1)c1sc(-c2nc(C)c(/C(C)=N/Nc3ccccc3)s2)nc1C | > 100 µM | > 100 µM | > 100 | 13.6 µM | > 100 µM | > 100 µM | –
CCCCCCCCCCC(=O)CCCCCCC(=O)O | > 100 µM | 36.8 µM | 44.2 | 35.5 µM | 26.7 µM | > 100 µM | –
COc1cc(/C=C/C(=O)c2cccc3ccccc23)cc(OC)c1OC | 19.1 µM | 34.4 µM | 73.2 | 21.3 µM | 13.8 µM | 27.8 µM | –
C/C(=C1/N=C(c2cc([N+](=O)[O-])ccc2Cl)N(c2ccc(Br)cc2)C1=O)c1ccc(N(CCC#N)CCC#N)cc1C | > 100 µM | > 100 µM | 42.1 | 97.5 µM | 29.5 µM | > 100 µM | –
Cc1ccccc1NC(=O)CC1C(=O)Nc2ccccc2S1=O (stereo unspecified) | > 100 µM | > 100 µM | > 100 | > 100 µM | > 100 µM | > 100 µM | –
CC1CC(C[N+](=O)[O-])CC2(C1)OCCO2 (stereo unspecified) | > 100 µM | > 100 µM | > 100 | > 100 µM | > 100 µM | > 100 µM | –
CC1=C(C(=O)Nc2cccc(Cl)c2)C(c2ccccc2O)C(C(=O)Nc2cccc(Cl)c2)=C(C)N1 | 35.6 µM | 59.2 µM | – | – | – | 52.1 µM | –
